According to PubChem BioAssay AID248 (DTP/NCI, 2004):
“And” between values parts separate entries of the source, which are not always exact repeats. Equal values may be shown once. Inconclusive results and toxic doses are left out. No stated cut-off is given here; in the data, active means T/C of 150% or more; inactive means T/C below 125%.

Tested on: L1210 leukemia ip in BDF1 mice, survival T/C
Assay: NCI In Vivo Anticancer Drug Screen. Data for tumor model L1210 Leukemia (intraperitoneal) in B6D2F1 (BDF1) mice
Conditions: endpoint: mean survival time, higher = longer survival
Summary of the method: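 Tumor cells were implanted, animals were treated, and survival was followed. The result divides the treated measurement by the vehicle-control measurement.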

[1] = dose: 25.0 mg/kg/injection, schedule: Q01DX009 (ip), vehicle: saline with Tween-80
[2] = dose: 100.0 mg/kg/injection, schedule: Q01DX009 (ip), vehicle: saline with Tween-80
[3] = dose: 100.0 mg/kg/injection, schedule: Q04DX003 (ip), vehicle: saline with Tween-80
[4] = dose: 200.0 mg/kg/injection, schedule: Q01DX009 (ip), vehicle: saline with Tween-80
[5] = dose: 200.0 mg/kg/injection, schedule: Q04DX003 (ip), vehicle: saline with Tween-80
[6] = dose: 400.0 mg/kg/injection, schedule: Q04DX003 (ip), vehicle: saline with Tween-80
[7] = dose: 100.0 mg/kg/injection, schedule: Q04DX003 (ip), vehicle: saline
[8] = dose: 200.0 mg/kg/injection, schedule: Q04DX003 (ip), vehicle: saline
[9] = dose: 50.0 mg/kg/injection, schedule: Q01DX009 (ip), vehicle: saline
[10] = dose: 100.0 mg/kg/injection, schedule: Q01DX009 (ip), vehicle: saline
[11] = dose: 200.0 mg/kg/injection, schedule: Q01DX009 (ip), vehicle: saline
[12] = dose: 50.0 mg/kg/injection, schedule: Q01DX009 (ip), vehicle: Klucel (hydroxypropylcellulose) (HPC)
[13] = dose: 100.0 mg/kg/injection, schedule: Q01DX009 (ip), vehicle: Klucel (hydroxypropylcellulose) (HPC)
[14] = dose: 50.0 mg/kg/injection, schedule: Q01DX001 (ip), vehicle: saline
[15] = dose: 100.0 mg/kg/injection, schedule: Q01DX001 (ip), vehicle: saline
[16] = dose: 200.0 mg/kg/injection, schedule: Q01DX001 (ip), vehicle: saline
[17] = dose: 200.0 mg/kg/injection, schedule: Q01DX009 (ip), vehicle: Klucel (hydroxypropylcellulose) (HPC)
[18] = dose: 400.0 mg/kg/injection, schedule: Q01DX001 (ip), vehicle: saline
[19] = dose: 400.0 mg/kg/injection, schedule: Q01DX009 (ip), vehicle: Klucel (hydroxypropylcellulose) (HPC)
[20] = dose: 400.0 mg/kg/injection, schedule: Q01DX009 (ip), vehicle: saline
[21] = dose: 400.0 mg/kg/injection, schedule: Q04DX003 (ip), vehicle: saline
[22] = dose: 100.0 mg/kg/injection, schedule: Q04DX003 (ip), vehicle: Klucel (hydroxypropylcellulose) (HPC)
[23] = dose: 200.0 mg/kg/injection, schedule: Q04DX003 (ip), vehicle: Klucel (hydroxypropylcellulose) (HPC)
[24] = dose: 400.0 mg/kg/injection, schedule: Q04DX003 (ip), vehicle: Klucel (hydroxypropylcellulose) (HPC)

Measured: T/C

CC(=O)NC(CSCc1c2ccccc2c(C)c2ccccc12)C(=O)O (stereo not given)
inactive: [1] 97 % of control | dose: 50.0 mg/kg/injection, schedule: Q01DX009 (ip), vehicle: saline with Tween-80 101 % of control | [2] 97 % of control and 92 % of control | [3] 94 % of control | [4] 88 % of control | [5] 96 % of control | [6] 96 % of control

O=S(=O)(NC1C2CC3C1N3N2)c1ccccc1 (stereo not given)
inactive: dose: 50.0 mg/kg/injection, schedule: Q04DX003 (ip), vehicle: saline 90 % of control | [7] 114 % of control | [8] 98 % of control

O=S(=O)(O)CCc1ccccn1
inactive: [9] 106 % of control | [10] 109 % of control | [11] 92 % of control

CC(C)c1oc(=O)cc2c1C(O)C1OC(=O)C3(C)C(O)C4OC4C2(C)C13 (stereo not given)
inactive: dose: 25.0 mg/kg/injection, schedule: Q01DX009 (ip), vehicle: Klucel (hydroxypropylcellulose) (HPC) 109 % of control | [12] 116 % of control | [13] 106 % of control and 88 % of control

O=C1OC(=O)C2C3CC(C4OC34)C12 (stereo not given)
inactive: [3] 95 % of control | [5] 100 % of control | [6] 94 % of control

Cc1cc(C)c2c(=O)[nH]c(=S)[nH]c2n1
inactive: [14] 102 % of control | [15] 108 % of control | [13] 95 % of control | [16] 102 % of control | [17] 91 % of control | [18] 98 % of control | [19] 98 % of control

O=C(CSCCN1CCCCC1)N1c2ccccc2Sc2ccccc21
inactive: dose: 10.0 mg/kg/injection, schedule: Q01DX009 (ip), vehicle: saline 102 % of control | dose: 20.0 mg/kg/injection, schedule: Q01DX009 (ip), vehicle: saline 100 % of control | dose: 40.0 mg/kg/injection, schedule: Q01DX009 (ip), vehicle: saline 96 % of control

c1cc[c]([Pb]([S]c2ccccn2)([c]2ccccc2)[c]2ccccc2)cc1
inactive: dose: 0.78 mg/kg/injection, schedule: Q01DX009 (ip), vehicle: Klucel (hydroxypropylcellulose) (HPC) 96 % of control | dose: 1.56 mg/kg/injection, schedule: Q01DX009 (ip), vehicle: Klucel (hydroxypropylcellulose) (HPC) 94 % of control | dose: 3.12 mg/kg/injection, schedule: Q01DX009 (ip), vehicle: Klucel (hydroxypropylcellulose) (HPC) 106 % of control and 89 % of control | dose: 25.0 mg/kg/injection, schedule: Q04DX002 (ip), vehicle: Klucel (hydroxypropylcellulose) (HPC) 100 % of control | dose: 50.0 mg/kg/injection, schedule: Q04DX002 (ip), vehicle: Klucel (hydroxypropylcellulose) (HPC) 88 % of control

CC1(C)C2CC=C(N3CCCCC3)C1C2 (stereo not given)
inactive: [3] 96 % of control | [5] 96 % of control | [6] 98 % of control

CC(C)(CCN)[N+](=O)[O-]
inactive: [15] 96 % of control | [16] 96 % of control | [18] 102 % of control

CC(=O)NC(=O)NC(C)=O
inactive: [15] 95 % of control | [10] 100 % of control | [7] 99 % of control | [16] 94 % of control | [11] 105 % of control | [8] 97 % of control | [18] 97 % of control | [20] 95 % of control | [21] 100 % of control

O=C(Nc1ccc(F)cc1)OCCc1ccccn1
inactive: dose: 100.0 mg/kg/injection, schedule: Q01DX001 (ip), vehicle: Klucel (hydroxypropylcellulose) (HPC) 96 % of control | [13] 98 % of control and 101 % of control | dose: 100.0 mg/kg/injection, schedule: Q04DX002 (ip), vehicle: Klucel (hydroxypropylcellulose) (HPC) 94 % of control and 99 % of control | [22] 113 % of control | dose: 200.0 mg/kg/injection, schedule: Q01DX001 (ip), vehicle: Klucel (hydroxypropylcellulose) (HPC) 101 % of control | [17] 101 % of control and 106 % of control | dose: 200.0 mg/kg/injection, schedule: Q04DX002 (ip), vehicle: Klucel (hydroxypropylcellulose) (HPC) 94 % of control and 96 % of control | [23] 96 % of control | dose: 400.0 mg/kg/injection, schedule: Q01DX001 (ip), vehicle: Klucel (hydroxypropylcellulose) (HPC) 91 % of control | [19] 94 % of control and 91 % of control | dose: 400.0 mg/kg/injection, schedule: Q04DX002 (ip), vehicle: Klucel (hydroxypropylcellulose) (HPC) 97 % of control and 105 % of control | [24] 99 % of control

Cc1ncc(O)c(CO)c1O
inactive: [14] 108 % of control | [15] 96 % of control | [16] 96 % of control | [18] 96 % of control

CNC(=O)CCCCC(=O)NC
inactive: [10] 107 % of control | [7] 103 % of control | [11] 102 % of control | [8] 98 % of control | [20] 108 % of control | [21] 101 % of control

CC(C)C1CCC(C)C(OB(OC2CC(C(C)C)CCC2C)OC2CC(C(C)C)CCC2C)C1 (stereo not given)
inactive: [22] 88 % of control | [23] 99 % of control | [24] 88 % of control

CC(=O)NC(C(=O)O)C(C)C(=O)O (stereo not given)
inactive: [7] 90 % of control | [8] 93 % of control | [21] 92 % of control

O=[N+]([O-])C(CO)(CO)CC(F)(F)F
inactive: dose: 3.13 mg/kg/injection, schedule: Q01DX009 (ip), vehicle: saline 96 % of control | dose: 6.25 mg/kg/injection, schedule: Q01DX009 (ip), vehicle: saline 98 % of control | dose: 12.5 mg/kg/injection, schedule: Q01DX009 (ip), vehicle: saline 102 % of control

O=C(Nc1cccc(C(F)(F)F)c1)Nc1ncccn1
inactive: [12] 90 % of control | [13] 94 % of control and 86 % of control | [19] 89 % of control

CCSC1OC(C(COC(C)=O)OC(C)=O)C(OC(C)=O)C1NC(C)=S (stereo not given)
inactive: [14] 97 % of control | [15] 103 % of control | [16] 103 % of control | [18] 100 % of control

Cc1nn(C(N)=S)c(C)c1N=Nc1cccc(Cl)c1
inactive: dose: 75.0 mg/kg/injection, schedule: Q01DX001 (ip), vehicle: other 96 % of control | dose: 150.0 mg/kg/injection, schedule: Q01DX001 (ip), vehicle: other 100 % of control | dose: 300.0 mg/kg/injection, schedule: Q01DX001 (ip), vehicle: other 105 % of control

COC(=O)c1cncc(C(=O)OC)c1
inactive: dose: 100.0 mg/kg/injection, schedule: Q04DX003 (ip), vehicle: saline sonified 95 % of control | dose: 200.0 mg/kg/injection, schedule: Q04DX003 (ip), vehicle: saline sonified 104 % of control | dose: 400.0 mg/kg/injection, schedule: Q04DX003 (ip), vehicle: saline sonified 97 % of control

O=C(O)c1nnc(C(=O)O)nn1
inactive: [9] 96 % of control | [10] 102 % of control and 104 % of control | [7] 100 % of control | [11] 100 % of control and 101 % of control | [8] 103 % of control | [20] 96 % of control | [21] 94 % of control

O=C1C2CC=CCC2C(=O)C2CC=CCC12 (stereo not given)
inactive: [2] 99 % of control | [4] 93 % of control | dose: 400.0 mg/kg/injection, schedule: Q01DX009 (ip), vehicle: saline with Tween-80 90 % of control

CCOC(=O)NC(=S)NN
inactive: [10] 105 % of control | [11] 110 % of control

CCOC(C)C(/C=N/Nc1ccccc1)=N\Nc1ccccc1 (stereo not given)
inactive: dose: 15.0 mg/kg/injection, schedule: Q01DX Z (ip), vehicle: carboxymethylcellulose (CMC) 98 % of control | dose: 30.0 mg/kg/injection, schedule: Q01DX Z (ip), vehicle: carboxymethylcellulose (CMC) 97 % of control | dose: 60.0 mg/kg/injection, schedule: Q01DX Z (ip), vehicle: carboxymethylcellulose (CMC) 97 % of control | dose: 120.0 mg/kg/injection, schedule: Q01DX Z (ip), vehicle: carboxymethylcellulose (CMC) 92 % of control

Clc1c(CBr)ccc(CBr)c1Cl
inactive: dose: 6.25 mg/kg/injection, schedule: Q01DX009 (ip), vehicle: saline with Tween-80 91 % of control | dose: 6.25 mg/kg/injection, schedule: Q04DX003 (ip), vehicle: Klucel (hydroxypropylcellulose) (HPC) 95 % of control | dose: 12.5 mg/kg/injection, schedule: Q01DX009 (ip), vehicle: saline with Tween-80 89 % of control | dose: 12.5 mg/kg/injection, schedule: Q04DX003 (ip), vehicle: Klucel (hydroxypropylcellulose) (HPC) 92 % of control | [1] 96 % of control | dose: 25.0 mg/kg/injection, schedule: Q04DX003 (ip), vehicle: Klucel (hydroxypropylcellulose) (HPC) 93 % of control
